# Reference: patent publication US10844023B2 (Washington University, priority 2017, dated 2020)
# Tested on: Mfn2 null MEFs
# Test: Mitochondrial elongation (aspect ratio) fusogenicity assay
# Format: cell-based, mouse
# Details: for Aspect ratio (MEAN ± SEM): Mfn2 null MEFs, overnight, treatment with 1 μM compound (footnote); for Fusogenicity Rank: rank order of aspect ratio among 44 soluble library compounds
SMILES,Aspect ratio (MEAN ± SEM),Fusogenicity Rank
"CCOC(=O)c1sc(NC(=O)C(CC)Sc2nnc3c(n2)[nH]c2ccccc23)nc1C (stereo not drawn) [drawing 203, ethyl 4-methyl-2-(2-{5H-[1,2,4]triazino[5,6-b]indol-3-ylsulfanyl}butanamido)-1,3-thiazole-5-carboxylate]",4.5 ± 0.5,13
"CC(C)C1=CC2C(=O)NC(CSCC(=O)NCc3ccccn3)=NC2S1 (stereo not drawn) [drawing 204, 2-({[4-oxo-6-(propan-2-yl)-3H,4H,4aH,7aH-thieno[2,3-d]pyrimidin-2-yl]methyl}sulfanyl)-N-[(pyridin-2-yl)methyl]acetamide]",3.8 ± 0.6,21
"O=C(CSCCc1ccccn1)Nc1ccc(Cl)c(Cl)c1 [drawing 205, N-(3,4-dichlorophenyl)-2-{[2-(pyridin-2-yl)ethyl]sulfanyl}acetamide]",2.8 ± 0.1,41
"Cc1nc[nH]c1CSCCn1cnc2cn(C)nc2c1=O [drawing 206, 2-methyl-6-(2-{[(4-methyl-1H-imidazol-5-yl)methyl]sulfanyl}ethyl)-2H,6H,7H-pyrazolo[4,3-d]pyrimidin-7-one]",2.8 ± 0.2,42
"Cc1ccc(-c2noc(CSCCCC(=O)Nc3c(C)cccc3C)n2)cc1F [drawing 209, N-(2,6-dimethylphenyl)-4-({[3-(3-fluoro-4-methylphenyl)-1,2,4-oxadiazol-5-yl]methyl}sulfanyl)butanamide]",3.9 ± 0.5,20
"COc1ccc2c(c1)C1(SCCN1C(=O)c1ccccc1C)C(=O)N2Cc1cccc(C(F)(F)F)c1 (stereo not drawn) [drawing 210, 5-methoxy-3′-(2-methylbenzoyl)-1-{[3-(trifluoromethyl)phenyl]methyl}-1,2-dihydrospiro[indole-3,2′-[1,3]thiazolidine]-2-one]",3.5 ± 0.6,26
"Cc1cccc(C)c1NC(=O)CCCSCc1ncc(C(C)C)o1 [drawing 211, N-(2,6-dimethylphenyl)-4-({[5-(propan-2-yl)-1,3-oxazol-2-yl]methyl}sulfanyl)butanamide]",3.5 ± 0.1,25
"Cc1ccc2c(c1)SC(C(=O)NCc1ccc(N3CCCN(C)CC3)nc1)C2 (stereo not drawn) [drawing 212, 6-methyl-N-{[6-(4-methyl-1,4-diazepan-1-yl)pyridin-3-yl]methyl}-2,3-dihydro-1-benzothiophene-2-carboxamide]",4.0 ± 0.3,18
"O=C(NCCSCc1ccc(Br)s1)C1CCCN(C(=O)c2cccs2)C1 (stereo not drawn) [drawing 213, N-(2-{[(5-bromothiophen-2-yl)methyl]sulfanyl}ethyl)-1-(thiophene-2-carbonyl)piperidine-3-carboxamide]",5.1 ± 0.2,9
"Cc1ccc(-n2nnnc2SC(C)c2nc(-c3nnc[nH]3)no2)cc1 (stereo not drawn) [drawing 215, 1-(4-methylphenyl)-5-({1-[3-(4H-1,2,4-triazol-3-yl)-1,2,4-oxadiazol-5-yl]ethyl}sulfanyl)-1H-1,2,3,4-tetrazole]",3.4 ± 0.3,27
"Cc1nnc(SCCCNC(=O)c2n[nH]c3c2CN(C)CC3)s1 [drawing 216, 5-methyl-N-{3-[(5-methyl-1,3,4-thiadiazol-2-yl)sulfanyl]propyl}-1H,4H,5H,6H,7H-pyrazolo[4,3-c]pyridine-3-carboxamide]",3.1 ± 0.3,34
"O=C(NCCSCc1ccccc1)C1CCCCO1 (stereo not drawn) [drawing 218, N-[2-(benzylsulfanyl)ethyl]oxane-2-carboxamide]",3.3 ± 0.4,30
"Cc1nc[nH]c1CSCCNC(=O)C1CCN(C(=O)C2CCC2)CC1 [drawing 220, 1-cyclobutanecarbonyl-N-(2-{[(4-methyl-1H-imidazol-5-yl)methyl]sulfanyl}ethyl)piperidine-4-carboxamide]",2.9 ± 0.5,40
"O=C(NCCSCc1cccc(Cl)c1)C1CCCCn2nnnc21 (stereo not drawn) [drawing 222, N-(2-{[(3-chlorophenyl)methyl]sulfanyl}ethyl)-5H,6H,7H,8H,9H-[1,2,3,4]tetrazolo[1,5-a]azepine-9-carboxamide]",2.9 ± 0.2,38
"CC(Sc1nnc(N2CCOCC2)n1Cc1ccccc1)C(=O)Nc1ccc2[nH]c(=O)[nH]c2c1 (stereo not drawn) [drawing 223, 2-{[4-benzyl-5-(morpholin-4-yl)-4H-1,2,4-triazol-3-yl]sulfanyl}-N-(2-oxo-2,3-dihydro-1H-1,3-benzodiazol-5-yl)propanamide]",5.2 ± 0.2,8
"CC1CCCCC1NC(=O)NCCSCc1ccccc1 (stereo not drawn) [drawing 224, 1-[2-(benzylsulfanyl)ethyl]-3-(2-methylcyclohexyl)urea]",6.8 ± 0.6,4
"S=C(NCCSCc1ccco1)NC1CC2CCC1C2 (stereo not drawn) [drawing 225, 1-{bicyclo[2.2.1]heptan-2-yl}-3-(2-{[(furan-2-yl)methyl]sulfanyl}ethyl)thiourea]",3.7 ± 0.9,23

SMILES,Aspect ratio (MEAN ± SEM),Fusogenicity Rank
"CC(Sc1nnc(N2CCOCC2)n1Cc1ccccc1)C(=O)Nc1ccc2c(c1)OCCO2 (stereo not drawn) [drawing 226, 2-{[4-benzyl-5-(morpholin-4-yl)-4H-1,2,4-triazol-3-yl]sulfanyl}-N-(2,3-dihydro-1,4-benzodioxin-6-yl)propanamide]",6.0 ± 0.1,6
"CC(Sc1nc(CN2CCOCC2)nc2ccccc12)C(=O)Nc1cccc(C(F)(F)F)c1 (stereo not drawn) [drawing 227, 2-({2-[(morpholin-4-yl)methyl]quinazolin-4-yl}sulfanyl)-N-[3-(trifluoromethyl)phenyl]propanamide]",5.6 ± 0.6,7
"Cc1ccc(-n2c(SC(C)C(=O)Nc3ccnn3C(C)C)nnc2N2CCOCC2)cc1 (stereo not drawn) [drawing 229, 2-{[4-(4-methylphenyl)-5-(morpholin-4-yl)-4H-1,2,4-triazol-3-yl]sulfanyl}-N-[1-(propan-2-yl)-1H-pyrazol-5-yl]propanamide]",4.1 ± 0.9,15
"CCCc1noc(C(C)Sc2nc3cc(C)ccc3[nH]2)n1 (stereo not drawn) [drawing 231, 5-methyl-2-{[1-(3-propyl-1,2,4-oxadiazol-5-yl)ethyl]sulfanyl}-1H-1,3-benzodiazole]",4.0 ± 1.0,17
"CCC(C)C1N=C2c3ccccc3N=C(SC(C)C(=O)Nc3cc(OC)cc(OC)c3)N2C1=O (stereo not drawn) [drawing 234, 2-{[2-(butan-2-yl)-3-oxo-2H,3H-imidazo[1,2-c]quinazolin-5-yl]sulfanyl}-N-(3,5-dimethoxyphenyl)propanamide]",3.2 ± 0.3,32
"CCC(C)NC(=O)c1ccccc1NC(=O)C(C)Sc1ccc(C)cc1 (stereo not drawn) [drawing 236, N-(butan-2-yl)-2-{2-[(4-methylphenyl)sulfanyl]propanamido}benzamide]",3.3 ± 0.4,29
"c1ccc(CSCCc2nc(C3CCOC3)no2)cc1 (stereo not drawn) [drawing 238, 5-[2-(benzylsulfanyl)ethyl]-3-(oxolan-3-yl)-1,2,4-oxadiazole]",3.4 ± 0.6,28
"CC(Sc1ccc(Br)cc1)C(=O)Nc1ccc2c(c1)OCCO2 (stereo not drawn) [drawing 239, 2-[(4-bromophenyl)sulfanyl]-N-(2,3-dihydro-1,4-benzodioxin-6-yl)propanamide]",3.2 ± 0.5,33
"Cc1ccc(C(=O)C(C)Sc2nnc3c(=O)n(-c4ccc(C)c(C)c4)ccn23)cc1C (stereo not drawn) [drawing 240, 7-(3,4-dimethylphenyl)-3-{[1-(3,4-dimethylphenyl)-1-oxopropan-2-yl]sulfanyl}-7H,8H-[1,2,4]triazolo[4,3-a]pyrazin-8-one]",3.9 ± 0.8,19
"O=C(NCCSCc1ccsc1)C1CC2CCCC(C1)C2=O (stereo not drawn) [drawing 241, 9-oxo-N-(2-{[(thiophen-3-yl)methyl]sulfanyl}ethyl)bicyclo[3.3.1]nonane-3-carboxamide]",4.4 ± 0.6,14
"CC(Sc1nnc(N2CCOCC2)n1Cc1ccccc1)C(=O)Nc1ccc2c(c1)OCO2 (stereo not drawn) [drawing 242, N-(2H-1,3-benzodioxol-5-yl)-2-{[4-benzyl-5-(morpholin-4-yl)-4H-1,2,4-triazol-3-yl]sulfanyl}propanamide]",2.5 ± 0.6,43
"Cc1ccc(N2C[C@@H]3CC[C@H](C2)N(Cc2ccccn2)C3=O)nn1 [drawing 245, (1S,5R)-3-(6-methylpyridazin-3-yl)-6-[(pyridin-2-yl)methyl]-3,6-diazabicyclo[3.2.2]nonan-7-one]",3.0 ± 0.4,36
"Cc1ccc(SC2CCN(Cc3cc4n(n3)CCNC4)CC2)cc1 [drawing 246, 4-[(4-methylphenyl)sulfanyl]-1-({4H,5H,6H,7H-pyrazolo[1,5-a]pyrazin-2-yl}methyl)piperidine]",2.9 ± 0.2,39
"CC(/N=N/C(=N)SC1CC(=O)N(c2cccc(C(=O)O)c2)C1=O)c1ccccc1 (stereo not drawn) [drawing 247, 3-(2,5-dioxo-3-{[(E)-N-[(1-phenylethyl)imino]carbamimidoyl]sulfanyl}pyrrolidin-1-yl)benzoic acid]",3.3 ± 0.0,31
"CCOc1ccccc1NC(=O)CSCc1cc(=O)c2ccc(C)c(C)c2[nH]1 [drawing 248, 2-{[(7,8-dimethyl-4-oxo-1,4-dihydroquinolin-2-yl)methyl]sulfanyl}-N-(2-ethoxyphenyl)acetamide]",3.7 ± 0.6,24
"O=C(CSCC(=O)N1CCCc2ccccc21)Nc1ccccc1 [drawing 249, 2-{[2-oxo-2-(1,2,3,4-tetrahydroquinolin-1-yl)ethyl]sulfanyl}-N-phenylacetamide]",2.4 ± 0.4,44
